The results in this text go back to patent publication US12617779B2, “Self degradation-type CDK9 inhibitor prodrug and liposome encapsulating same” (Sumitomo Pharma Co., Ltd., priority 2021, dated 2026).

A short description of this series: Liposome encapsulation test, remote loading method (Experimental Example 4).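 For Encapsulation efficiency: encapsulated compound as percent of compound amount introduced.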 The class given is physicochemical. Particulars: Compound concentration when encapsulated 10 mg/mL. On the procedure: For Example 1, Example 2, Example 3, Example 4, Example 5, Example 6, Example 7, Example 8, Example 9, Example 10, Example 11, Example 12, Example 13, Example 14, Example 15, Example 16, Example 17 and Alvocidib, an encapsulation test in liposomes was performed using a remote loading method.
<Liposome Encapsulation Test of Example 1, Example 2, Example 5, Example 6, Example 9, Example 10, Example 11, Example 12, Example 13, Example 14, Example 15, and Example 16>
Hydrogenated soybean phosphatidylcholine (COATSOME NC-21E, manufactured by NOF CORPORATION, 7.77 g), cholesterol (manufactured by Sigma, 2.78 g) and distearoylphosphatidylethanolamine-methoxypolyethylene glycol 2000 (SUNBRIGHT DSPE-020CN, manufactured by NOF CORPORATION, 2.47 g) were dissolved in tert-butyl alcohol (720 mL) warmed to 65° C. The solution was placed in an eggplant flask and frozen in a dry ice-acetone bath, and then the tert-butyl alcohol was removed by evaporation under reduced pressure to give a lipid mixture.
To the above lipid mixture was added a 250 mM ammonium sulfate solution (240 mL), and the mixture was warmed to 65° C., and dispersed by a homogenizer (ULTRA-TURRAX, manufactured by IKA) to give a crude liposome dispersion. Then, the crude liposome dispersion was dispersed by a high pressure homogenizer (Nano-Mizer NM2, manufactured by YOSHIDA KIKAI CO., LTD.) at a pressure of 100 MPa to give liposomes with an average particle size (Z-average) of about 80 nm. The liposome outer solution was replaced with 10 mM L-histidine/10% sucrose solution (pH 6.5) using a dialysis cassette (Slide-A-Lyzer G2 Dialysis Cassettes 20K MWCO, manufactured by Thermo Scientific) to give an empty liposome solution. The solution was filtered through a 0.22 μm membrane filter, and a 10 mM L-histidine/10% sucrose solution (pH 6.5) was added thereto to adjust the total lipid concentration to 50 mM (50 μmol/mL). The lipid concentration was determined by quantitatively analyzing cholesterol using HPLC and calculating the total lipid concentration from the lipid mixing ratio. The amount for the above adjustment was increased or decreased as appropriate.
The compound (10 mg) was weighed, and the empty liposome solution (1 mL) with a total lipid concentration of 50 mM was added thereto. The solution was adjusted to pH 5 to 6 with 1 mol/L hydrochloric acid or 1 mol/L aqueous sodium hydroxide solution as necessary, warmed in a 65° C. water bath for 2 to 3 minutes, and ice-cooled. The mixture was centrifuged at 15,000×g for 5 minutes to precipitate and remove insoluble substances.
The liposome solution (100 μL) after removing insoluble substances was taken on an ultrafiltration filter (Amicon Ultra, 100K, 0.5 mL, manufactured by Merck) and centrifuged at 4° C., 15,000×g for 10 minutes. The compound concentrations in the liposome solution after removing insoluble substances and in the filtrate after ultrafiltration were determined by HPLC, and the encapsulation rate, encapsulation efficiency, and encapsulated compound content per 50 μmol of lipid were calculated by the following formula.
The measurement conditions for HPLC are as follows.
An empty liposome solution with a total lipid concentration of 75 mM was prepared by the same procedure as for the above example compound group. Each compound was weighed, and the empty liposome solution with a total lipid concentration of 75 mM was added thereto such that the compound concentration became 15 mg/mL. The solution was adjusted to pH 5 to 6 with 1 mol/L hydrochloric acid or 1 mol/L aqueous sodium hydroxide solution, warmed in a 65° C. water bath for 3 minutes, and ice-cooled. Hereafter, the encapsulation rate and encapsulation efficiency were calculated by the same procedure as for the above example compound group. The encapsulated compound content per 50 μmol of lipid was calculated by the following formula.
[formula] <Liposome Encapsulation Test of Example 7, Example 8 and Example 17> […]

Turning to `CN1CC[C@H](c2c(OC(=O)N(CCCC(F)(F)F)CC3CCCCN3)cc(O)c3c(=O)cc(-c4ccccc4Cl)oc23)[C@H](O)C1` (stereo partly drawn) [Example 14, 2-(2-chlorophenyl)-5-hydroxy-8-[(3S,4R)-3-hydroxy-1-methylpiperidin-4-yl]-4-oxo-4H-1-benzopyran-7-yl [(piperidin-2-yl)methyl](4,4,4-trifluorobutyl)carbamate], the “Encapsulated compound content per 50 μmol of lipid” value is on record as 2.8 mg, the Encapsulation efficiency was 28.4% and the Encapsulation rate turned out to be 26.6%.
For `CN1CC[C@H](c2c(OC(=O)N(Cc3ccccc3)CC3CCCCN3)cc(O)c3c(=O)cc(-c4ccccc4Cl)oc23)[C@H](O)C1` (stereo partly drawn) [Example 15, 2-(2-chlorophenyl)-5-hydroxy-8-[(3S,4R)-3-hydroxy-1-methylpiperidin-4-yl]-4-oxo-4H-1-benzopyran-7-yl benzyl [(piperidin-2-yl)methyl]carbamate] the same measures were 2.2 mg, 22.2% and 23.6%.
For `CCN(CCC1CCCCN1)C(=O)Oc1cc(O)c2c(=O)cc(-c3ccccc3Cl)oc2c1[C@H]1CCN(C)C[C@H]1O` (stereo partly drawn) [Example 16, 2-(2-chlorophenyl)-5-hydroxy-8-[(3S,4R)-3-hydroxy-1-methylpiperidin-4-yl]-4-oxo-4H-1-benzopyran-7-yl ethyl[2-(piperidin-2-yl)ethyl]carbamate] the same measures were 2.2 mg, 21.7% and 20.7%.
